Results on 16 compounds are retold here after patent publication US9593144B2, “FPR1 antagonist derivatives and use thereof” (CHANG GUNG UNIVERSITY, priority 2014, dated 2017).

Like-named read-outs stand apart in the source and are kept apart here. Square brackets hold non-standard residues; d marks the D form. Peptide text beside a SMILES is read from it. * marks the point of attachment. dPhe(4-NO2) = N[C@H](Cc1ccc([N+](=O)[O-])cc1)C(=O)O; Trp(5-OH) = N[C@@H](Cc1c[nH]c2ccc(O)cc12)C(=O)O; dPhe(4-Cl) = N[C@H](Cc1ccc(Cl)cc1)C(=O)O; Nicotinoyl = O=C(c1cccnc1)*; Bz = O=C(c1ccccc1)* Where only a bound is given, the exact number is not on record here.

In general, melting point refers to the temperature, or range, at which the solid turns liquid.

The subject of data set [1] is human neutrophils. In words: cells. The data set is classed as cell-based. The settings on record: for IC50: mean ± SEM. The source says:
Tables 5 and 6 explore whether there is an anti-inflamatory effect in the dipeptide derivatives. Because ferricytochrome c cannot penetrate cell membranes, it reacts with superoxide anion extracellularly. Also, there are absorptive reactions at 550 nm, and differences among the absorptive reactions can be used to evaluate the influence on the release of superoxide anion. The elastase is released by degranulation as the neutrophil is activated. Tables 5 and 6 use the substrate, MeO-Suc-Ala-Ala-Pro-Val-p-nitroanilide, with the specificity for reacting with the elastase so as to evaluate the influence of the candidate compound on the elastase release.
Blood was taken from healthy human donors (20-32 years old) by venipuncture, following a protocol approved by the Institutional Review Board at Chang Gung Memorial Hospital. Neutrophils were isolated by a standard method of dextran sedimentation prior to centrifugation in a Ficoll Hypaque gradient and the hypotonic lysis of erythrocytes.
The evaluation of O2.^− generation was based on the SOD-inhibitable reduction of ferricytochrome c. In brief, after supplementation with 0.5 mg ml^−1 ferricytochrome c and 1 mM Ca^2+, neutrophils were equilibrated at 37° C. for 2 min and incubated with drugs […].

The subject of data set [2] is human neutrophils. In words: cells. The data set is classed as cell-based. The settings on record: for IC50: mean ± SEM. As for the experimental part:
Degranulation of azurophilic granules was determined by elastase release as described above. Experiments were performed using MeO-Suc-[…]-nitroanilide as the elastase substrate. […] Results are expressed as the percentage of elastase release in the drug-free control group, DMSO. Tables 5 and 6 explore whether there is an anti-inflamatory effect in the dipeptide derivatives. Because ferricytochrome c cannot penetrate cell membranes, it reacts with superoxide anion extracellularly. Also, there are absorptive reactions at 550 nm, and differences among the absorptive reactions can be used to evaluate the influence on the release of superoxide anion. The elastase is released by degranulation as the neutrophil is activated. Tables 5 and 6 use the substrate, MeO-Suc-[…]-nitroanilide, with the specificity for reacting with the elastase so as to evaluate the influence of the candidate compound on the elastase release. Blood was taken from healthy human donors (20-32 years old) by venipuncture, following a protocol approved by the Institutional Review Board at Chang Gung Memorial Hospital. Neutrophils were isolated by a standard method of dextran sedimentation prior to centrifugation in a Ficoll Hypaque gradient and the hypotonic lysis of erythrocytes. […] The degranulation of azurophilic granules was determined by elastase release as described above. Experiments were performed using MeO-Suc-[…]-nitroanilide as the elastase substrate. Briefly, after supplementation with MeO-Suc-[…]-nitroanilide ([…] neutrophils (6×10^5 ml^-1) were equilibrated at 37° C. for 2 min and incubated with drugs for 5 min. […] The results are expressed as the percentage of elastase release in the drug-free control group.
This is another data set of the same source.

Where [3] appears, read: Neutrophil, human neutrophils, fMLP/CB, n = 3, Table 1, read-out: Anti-inflammation O2•− generation (IC50).
Where [4] appears, read: Neutrophil, fMLP/CB, n = 3, Table 1, read-out: Anti-inflammation NE release (IC50).
Where [5] appears, read: human neutrophils, fMLP/CB, n = 3, Table 1, read-out: Anti-inflammation O2•− generation (IC50).
Where [6] appears, read: fMLP/CB, n = 3, Table 1, read-out: Anti-inflammation NE release (IC50).
[7] abbreviates: human neutrophils, fMLP/CB, n = 3, Table 2, read-out: Anti-inflammation O2•− generation (IC50).
Setting [8] is: fMLP/CB, n = 3, Table 2, read-out: Anti-inflammation NE release (IC50).
[9] abbreviates: human neutrophils, fMLP/CB, n = 3, Table 3, read-out: Anti-inflammation O2•− generation (IC50).
The mark [10] stands for this setting: fMLP/CB, n = 3, Table 3, read-out: Anti-inflammation NE release (IC50).

Regarding `COC(=O)[C@@H](Cc1ccccc1)NC(=O)[C@H](Cc1c[nH]c2ccccc12)NC(=O)c1ccc(F)cc1` [Compound 4, N—(N-4-Fluorobenzoyl-L-tryptophanyl)-D-phenylalanine methyl ester], the melting point was in the range of 191 to 193 °C. Moreover, in the data set on human neutrophils [1] (setting [3]), the IC50 is over 30 µM. Besides, in the data set with human neutrophils [2] (setting [4]), the IC50 is over 30 µM.
Consider `COC(=O)[C@@H](Cc1ccccc1)NC(=O)[C@H](Cc1c[nH]c2ccccc12)NC(=O)c1ccc(Cl)cc1` [Compound 5, N—(N-4-Chlorobenzoyl-L-tryptophanyl)-D-phenylalanine methyl ester], for which the melting point lay in the range of 191 to 193 °C. In addition, in the data set on human neutrophils [1] (setting [3]), the IC50 was over 30 µM. For the same compound, in the data set with human neutrophils [2] (setting [4]), the IC50 stood at 10.4 ± 4.61 µM.
In turn, `COC(=O)[C@@H](Cc1ccccc1)NC(=O)[C@H](Cc1c[nH]c2ccccc12)NC(=O)c1ccc(C)cc1` [Compound 6, N—(N-4-Methylbenzoyl-L-tryptophanyl)-D-phenylalanine methyl ester] had a melting point of 169 to 171 °C. In addition, the IC50 in the data set with human neutrophils [1] (Neutrophil, WKYMVm, n = 4 or 8, Table 5, read-out: Superoxide anion WKYMVm IC50) turned out to be 6.55 ± 0.59 µM. Also, in the data set with human neutrophils [1] (Neutrophil, WKYMVm/CB, n = 3, Table 4, read-out: WKYMVm/CB O2•− generation (IC50)), the IC50 is 6.55 ± 0.59 µM. In addition, the IC50 in the data set on human neutrophils [1] (Neutrophil, human neutrophils, fMLF/CB, n = 3, Table 4, read-out: fMLF/CB O2•− generation (IC50)) amounted to 1.88 ± 0.29 µM. For the same compound, the IC50 in the data set with human neutrophils [1] (Neutrophil, human neutrophils, fMLF, n = 4 or 8, Table 5, read-out: Superoxide anion fMLF IC50) is 1.88 ± 0.29 µM. Besides, the IC50 with human neutrophils [1] (setting [3]) worked out at 1.88 ± 0.29 µM. Moreover, the IC50 in the data set with human neutrophils [2] (Neutrophil, WKYMVm, n = 4 or 8, Table 6, read-out: Elastase release WKYMVm IC50) is 1.96 ± 0.11 µM. For the same compound, the IC50 in the data set with human neutrophils [2] (Neutrophil, WKYMVm/CB, n = 3, Table 4, read-out: WKYMVm/CB NE release (IC50)) amounted to 1.96 ± 0.11 µM. Moreover, the IC50 with human neutrophils [2] (Neutrophil, fMLF, n = 4 or 8, Table 6, read-out: Elastase release fMLF IC50) turned out to be 2.47 ± 0.25 µM. For the same compound, the IC50 in the data set on human neutrophils [2] (Neutrophil, fMLF/CB, n = 3, Table 4, read-out: fMLF/CB NE release (IC50)) was 2.47 ± 0.25 µM. Besides, in the data set on human neutrophils [2] (setting [4]), the IC50 worked out at 2.47 ± 0.25 µM.
For the compound `COC(=O)[C@@H](Cc1ccccc1)NC(=O)[C@H](Cc1c[nH]c2ccc(O)cc12)NC(=O)c1ccccc1` [Compound 11a, N—(N-Benzoyl-5-hydroxy-L-tryptophanyl)-D-phenylalanine methyl esters] (Bz-[Trp(5-OH)]-[dF]-OMe), the IC50 with human neutrophils [1] (setting [5]) is 8.81 ± 1.22 µM; in the data set with human neutrophils [2] (setting [6]), 9.11 ± 0.76 µM.
As for `COC(=O)[C@@H](Cc1ccccc1)NC(=O)[C@H](Cc1c[nH]c2ccc(O)cc12)NC(=O)c1ccccc1` [Compound 11b, N—(N-Benzoyl-5-hydroxy-L-tryptophanyl)-D-phenylalanine methyl esters] (Bz-[Trp(5-OH)]-[dF]-OMe), the values for the IC50 in the data set with human neutrophils [1] (setting [5]) and in the data set with human neutrophils [2] (setting [6]) were 18.7 ± 4.02 µM and 22.1 ± 4.96 µM, respectively.
With `O=C(N[C@@H](Cc1c[nH]c2ccccc12)C(=O)N[C@@H](CO)Cc1cccc(O)c1)c1ccccc1` [Compound 12a, N—(N-Benzoyl-L-tryptophanyl)-5-hydroxy-D-phenylalaninol], the IC50 is over 30 µM in the data set on human neutrophils [1] (Neutrophil, human neutrophils, fMLP/CB, n = 3, Table 3, read-out: Anti-inflammation O2•− generation (IC50)) and over 30 µM in the data set on human neutrophils [2] (Neutrophil, fMLP/CB, n = 3, Table 3, read-out: Anti-inflammation NE release (IC50)).
As to `COC(=O)[C@@H](Cc1ccccc1)NC(=O)[C@H](Cc1c[nH]c2ccccc12)NC(=O)c1cccnc1` [Compound 15a, N—(N-nicotinoyl-L-tryptophanyl)-D-phenylalanine methyl esters] (Nicotinoyl-Trp-[dF]-OMe), the IC50 is 13.1 ± 0.5 µM in the data set on human neutrophils [1] (setting [5]) and over 30 µM with human neutrophils [2] (setting [6]).
`COC(=O)[C@@H](Cc1ccccc1)NC(=O)[C@H](Cc1c[nH]c2ccccc12)NC(=O)c1cccnc1` [Compound 15b, N—(N-nicotinoyl-L-tryptophanyl)-D-phenylalanine methyl esters] (Nicotinoyl-Trp-[dF]-OMe): the IC50 with human neutrophils [1] (setting [5]) and in the data set on human neutrophils [2] (setting [6]) was over 30 µM throughout.
For the compound `COC(=O)[C@@H](Cc1ccc([N+](=O)[O-])cc1)NC(=O)[C@H](Cc1c[nH]c2ccccc12)NC(=O)c1ccccc1` [Compound 18a, N—(N-Benzoyl-L-tryptophanyl)-para-nitro-D-phenylalanine methyl esters] (Bz-Trp-[dPhe(4-NO2)]-OMe), the figures for the IC50 with human neutrophils [1] (setting [7]) and with human neutrophils [2] (setting [8]) were 19 ± 2.7 µM and 11.2 ± 0.46 µM, respectively.
`COC(=O)[C@@H](Cc1ccc([N+](=O)[O-])cc1)NC(=O)[C@H](Cc1c[nH]c2ccccc12)NC(=O)c1ccccc1` [Compound 18b, N—(N-Benzoyl-L-tryptophanyl)-para-nitro-D-phenylalanine methyl esters] (Bz-Trp-[dPhe(4-NO2)]-OMe): the IC50 with human neutrophils [1] (setting [7]) stood at 13.1 ± 0.4 µM; in the data set with human neutrophils [2] (setting [8]), 15.4 ± 0.54 µM.
`COC(=O)[C@@H](Cc1ccc(Cl)cc1)NC(=O)[C@H](Cc1c[nH]c2ccccc12)NC(=O)c1ccccc1` [Compound 21a, N—(N-Benzoyl-L-tryptophanyl)-para-chloro-D-phenylalanine methyl esters] (Bz-Trp-[dPhe(4-Cl)]-OMe): the IC50 with human neutrophils [1] (setting [7]) was found to be 4.41 ± 0.27 µM; in the data set with human neutrophils [2] (setting [8]) it was 4.31 ± 0.52 µM.
For the compound `COC(=O)[C@@H](Cc1ccc(Cl)cc1)NC(=O)[C@H](Cc1c[nH]c2ccccc12)NC(=O)c1ccccc1` [Compound 21b, N—(N-Benzoyl-L-tryptophanyl)-para-chloro-D-phenylalanine methyl esters] (Bz-Trp-[dPhe(4-Cl)]-OMe), the IC50 in the data set with human neutrophils [1] (setting [7]) came to 5.26 ± 0.84 µM; in the data set with human neutrophils [2] (setting [8]), 12.4 ± 3.53 µM.
As for `N#CCNC(=O)[C@@H](Cc1ccccc1)NC(=O)[C@H](Cc1c[nH]c2ccccc12)NC(=O)c1ccccc1` [Compound 27a, N—(N-benzoyl-L-tryptophanyl)-D-phenylalanine-glycine-nitriles], the “Superoxide anion WKYMVm Inh %” value with human neutrophils [1] (WKYMVm, inhibitory percentage under 10 μM, Table 5, listed as HCH 90-2-2) is reported as 28.79 ± 2.6 %. Further, the IC50 in the data set on human neutrophils [1] (human neutrophils, fMLF, n = 4 or 8, Table 5, read-out: Superoxide anion fMLF IC50) was 6.23 ± 1.05 µM; in the data set with human neutrophils [1] (setting [9]), 4.23 ± 2.44 µM; in the data set with human neutrophils [2] (setting [10]), 4.69 ± 0.8 µM. Besides, in the data set with human neutrophils [2] (WKYMVm, inhibitory percentage under 10 μM, Table 6), the “Elastase release WKYMVm Inh %” value turned out to be 35.9 ± 0.8 %. For the same compound, the “Elastase release fMLF Inh %” value in the data set on human neutrophils [2] (fMLF, inhibitory percentage under 10 μM, Table 6, listed as HCH 90-2-2) was found to be 28.79 ± 2.6 %.
Regarding `N#CCNC(=O)[C@@H](Cc1ccccc1)NC(=O)[C@H](Cc1c[nH]c2ccccc12)NC(=O)c1ccccc1` [Compound 27b, N—(N-benzoyl-L-tryptophanyl)-D-phenylalanine-glycine-nitriles], in the data set on human neutrophils [1] (WKYMVm, inhibitory percentage under 10 μM, Table 5, listed as HCH 90-2-1), the “Superoxide anion WKYMVm Inh %” value turned out to be 18.66 ± 0.7 %. Further, the “Superoxide anion fMLF Inh %” value in the data set with human neutrophils [1] (human neutrophils, fMLF, inhibitory percentage under 10 μM, Table 5) stood at 34.61 ± 4.1 %. Also, the IC50 in the data set with human neutrophils [1] (setting [9]) was 10.5 ± 4.23 µM; in the data set on human neutrophils [2] (WKYMVm, n = 4 or 8, Table 6, read-out: Elastase release WKYMVm IC50), 6.65 ± 0.23 µM; with human neutrophils [2] (setting [10]), 14.5 ± 2.87 µM. For the same compound, the “Elastase release fMLF Inh %” value in the data set with human neutrophils [2] (fMLF, inhibitory percentage under 10 μM, Table 6, listed as HCH 90-2-1) is given as 18.66 ± 0.7 %.
`C/C=C/C[C@@H](C)[C@@H](O)[C@H]1C(=O)N[C@@H](CC)C(=O)N(C)CC(=O)N(C)[C@@H](CC(C)C)C(=O)N[C@@H](C(C)C)C(=O)N(C)[C@@H](CC(C)C)C(=O)N[C@@H](C)C(=O)N[C@H](C)C(=O)N(C)[C@@H](CC(C)C)C(=O)N(C)[C@@H](CC(C)C)C(=O)N(C)[C@H](C(C)C)C(=O)N1C` [CycH, Cyclosporin H, reference compound]: the IC50 with human neutrophils [2] (WKYMVm/CB, n = 3, Table 4, read-out: WKYMVm/CB NE release (IC50)) is 0.17 ± 0.01 µM.
With `CC(C)(C)C(=O)Oc1ccc(S(=O)(=O)Nc2ccccc2C(=O)NCC(=O)O)cc1` [Sivelestat, reference compound], the IC50 with human neutrophils [2] (setting [4]) amounted to 0.046 ± 0.02 µM.
